Source: patent publication US20070244155A1 (AMGEN INC., priority 2006, published 2007)

Target: T1, human GPR40 (Homo sapiens, UniProt O14842)
T1 construct: expressed in transfected cells; host or cells: CHO cells
Assay: Cell-based aequorin assay using human GPR40
Conditions: CHO cells transfected with GPR40 and aequorin expression vectors; aequorin luminescence; activation of human GPR40; read-out: Relative EC50
Description: A cell-based aequorin assay may be employed to characterize the modulatory activity of compounds on the GPR40 signaling pathway. In an exemplary assay, CHO cells are transfected in a 15 cm plated containing 14 million cells with 5 μg of GPR40 expression vector and 5 μg of Aequorin expression vector (Euroscreen) using Lipofectamine 2000 (Invitrogen). After 17-24 hours post-transfection, cells are washed with phosphate buffered saline (PBS) and detached from the tissue culture dish with 2 mL of trypsin (0.25%(w/v)). Trypsinization is halted with 28 mL of Hanks Buffered Salt Solution containing 20 mM Hepes (H/HBSS) and 0.01% fatty acid-free bovine serum albumin (BSA) or 0.625% fatty acid-free human serum albumin (HSA). Coelantrazine is added to 1 ug/mL and the cells are incubated for 2 hours at room temperature. Cells are gently mixed every 15 minutes. Compounds are dissolved in dimethyl sulfoxide for preparation of 10 mM stock solutions. Compounds are diluted in H/HBSS containing either 0.01% BSA or 0.625% HSA. Serial dilutions of the test compounds are prepared to determine dose response. Aequorin luminescence measurements are made using an EG&G Berthold 96-well luminometer and the response is measured over a 20 second interval after cells and compounds are mixed. The area-under-curve from 2-20 seconds is plotted to determine dose response. The EC50 (effective concentration to reach 50% maximal response) is determined from the dose response plot. Table 1 includes representative data (EC50 values) obtained for exemplary compounds of the invention for the relative activation of human GPR40. […] Therefore, in some embodiments, the invention provides any of the compounds listed in Table 1 individually or as members of a group and pharmaceutically acceptable salts, esters, solvates, tautomers, stereoisomers, and/or prodrugs thereof.

T1 sequence (O14842 whole entry): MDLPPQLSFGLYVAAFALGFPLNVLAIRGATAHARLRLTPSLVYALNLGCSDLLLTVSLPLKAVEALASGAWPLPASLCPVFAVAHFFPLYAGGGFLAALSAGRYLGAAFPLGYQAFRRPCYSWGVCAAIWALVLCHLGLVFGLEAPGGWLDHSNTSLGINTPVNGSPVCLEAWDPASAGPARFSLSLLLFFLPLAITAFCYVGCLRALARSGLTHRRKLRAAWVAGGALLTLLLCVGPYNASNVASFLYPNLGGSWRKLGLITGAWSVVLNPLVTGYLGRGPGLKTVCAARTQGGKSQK

`CC1CCc2cc(OCc3cccc(-c4ccc(C(F)(F)F)cc4)c3)ccc2C1CC(=O)O` (mixture of isomers) [Example 22] and `CC1Cc2cc(OCc3cccc(-c4ccc(C(F)(F)F)cc4)c3)ccc2C1CC(=O)O` (mixture of isomers) [Example 26] fall in the same range of EC50: 1000 to 10000 nM for the first, 1000 to 10000 nM for the second.

`CCCCOc1ccc(C)cc1-c1ccc(COc2ccc3c(c2)CCC(C)C3CC(=O)O)cc1` (mixture of isomers) [Example 23] and `CCCCOc1ccc(C)cc1-c1ccc(COc2ccc3c(c2)CC(C)C3CC(=O)O)cc1` (mixture of isomers) [Example 25] fall in the same range of EC50: 1000 to 10000 nM for the first, 1000 to 10000 nM for the second.

`Cc1ccc(-c2nc(C)c(COc3ccc4c(c3)CCC(C)C4CC(=O)O)s2)cc1` (mixture of isomers) [Example 24] and `Cc1ccc(-c2nc(C)c(COc3ccc4c(c3)CC(C)C4CC(=O)O)s2)cc1` (mixture of isomers) [Example 28] fall in the same range of EC50: 1000 to 10000 nM for the first, 1000 to 10000 nM for the second.

First: CCOc1ccccc1-c1ccc(COc2ccc3c(c2)CC(C)C3CC(=O)O)cc1 (mixture of isomers) [Example 27]
Second: CCOc1ccccc1-c1ccc(COc2ccc3c(c2)CCC3CC(=O)O)cc1 (stereo not drawn) [Example 12]
The EC50 of the first is higher: 1000 to 10000 nM for the first, 100 to 1000 nM for the second.

First: CCCCOc1ccc(C)cc1-c1ccc(COc2ccc3c(c2)CCCC3CC(=O)O)cc1 (racemic) [Example 1, (R/S)-[6-(2′-Butoxy-5′-methyl-biphenyl-4-ylmethoxy)-1,2,3,4-tetrahydro-naphthalen-1-yl]-acetic acid]
Second: CCCCOc1ccc(C)cc1-c1ccc(COc2ccc3c(c2)CCC[C@H]3CC(=O)O)cc1 [Example 4]
The EC50 of the first is higher: 100 to 1000 nM for the first, < 100 nM for the second.

Compared with `CCCCOc1ccc(C)cc1-c1ccc(COc2ccc3c(c2)CCC3CC(=O)O)cc1` (racemic) [Example 11, (R/S)-[5-(2′-Butoxy-5′-methyl-biphenyl-4-ylmethoxy)-indan-1-yl]-acetic acid], `CCCCOc1ccc(C)cc1-c1ccc(COc2ccc3c(c2)C(CC(=O)O)CCC3)cc1` (stereo not drawn) [Example 18] is higher in EC50: 100 to 1000 nM for the first, 1000 to 10000 nM for the second.

First: CCCCOc1ccc(C)cc1-c1ccc(COc2ccc3c(c2)CCC(C(=O)O)C3)cc1 (racemic) [Example 29, (R/S)-6-(2′-Butoxy-5′-methyl-biphenyl-4-ylmethoxy)-1,2,3,4-tetrahydro-naphthalene-2-carboxylic acid]
Second: CCCCOc1ccc(C)cc1-c1ccc(COc2ccc3c(c2)CC(CC(=O)O)CC3)cc1 (stereo not drawn) [Example 21]
The EC50 of the first is lower: 100 to 1000 nM for the first, 1000 to 10000 nM for the second.

`C=C1COc2cc(OCc3ccc(-c4cc(C)ccc4OCCCC)cc3)ccc2C1CC(=O)O` (racemic) [Example 35] and `CCCCOc1ccc(C)cc1-c1ccc(COc2ccc3c(c2)OCC(=C(C)C)C3CC(=O)O)cc1` (racemic) [Example 39] fall in the same range of EC50: 100 to 1000 nM for the first, 100 to 1000 nM for the second.

`CCCCOc1ccc(C)cc1-c1ccc(COc2ccc3c(c2)OCC(C)C3CC(=O)O)cc1` (racemic) [Example 40] and `CCOc1ccccc1-c1ccc(COc2ccc3c(c2)CCCC3CC(=O)O)cc1` (stereo not drawn) [Example 2, [6-(2′-Ethoxy-biphenyl-4-ylmethoxy)-1,2,3,4-tetrahydro-naphthalen-1-yl]-acetic acid] fall in the same range of EC50: 100 to 1000 nM for the first, 100 to 1000 nM for the second.

Compared with `C=C1CCOc2cc(OCc3ccccc3)ccc2C1CC(=O)O` (racemic) [Example 43, (R/S)-2-(8-(benzyloxy)-4-methylene-2,3,4,5-tetrahydrobenzo[b]oxepin-5-yl)acetic acid], `C=C1COc2cc(OCc3sc(-c4ccc(C)cc4)nc3C)ccc2C1CC(=O)O` (stereo not drawn) [Example 34, 2-(7-((4-methyl-2-p-tolylthiazol-5-yl)methoxy)-3-methylene-3,4-dihydro-2H-chromen-4-yl)acetic acid] is lower in EC50: 100 to 1000 nM for the first, < 100 nM for the second. The second is the more potent here.

`C=C(c1ccc(-c2ccccc2)cc1)c1ccc2c(c1)CCCC2CC(=O)O` (racemic) [Example 44, (R/S)-[6-(1-Biphenyl-4-yl-vinyl)-1,2,3,4-tetrahydro-naphthalen-1-yl]-acetic acid] and `C=C(c1ccc(Oc2ccccc2)cc1)c1ccc2c(c1)CCCC2CC(=O)O` (racemic) [Example 45, (R/S)-{6-[1-(4-Phenoxy-phenyl)-vinyl]-1,2,3,4-tetrahydro-naphthalen-1-yl}-acetic acid] fall in the same range of EC50: 1000 to 10000 nM for the first, 1000 to 10000 nM for the second.

`Cc1cc(Cl)ccc1-c1cccc(COc2ccc3c(c2)C(=O)NC3CC(=O)O)c1` (racemic) [Example 66, (R/S)-(5-(((4′-chloro-2′-methyl-1,1′-biphenyl-3-yl)methyl)oxy)-3-oxo-2,3-dihydro-1H-isoindol-1-yl)acetic acid] and `Cc1c(Cl)cccc1-c1cccc(COc2ccc3c(c2)C(=O)NC3CC(=O)O)c1` (racemic) [Example 68] fall in the same range of EC50: 1000 to 10000 nM for the first, 1000 to 10000 nM for the second.

`Cc1cc(Cl)ccc1-c1cccc(COc2ccc3c(c2)C(=O)N(C)C3CC(=O)O)c1` (racemic) [Example 67, (R/S)-(5-(((4′-chloro-2′-methyl-1,1′-biphenyl-3-yl)methyl)oxy)-2-methyl-3-oxo-2,3-dihydro-1H-isoindol-1-yl)acetic acid] and `Cc1c(Cl)cccc1-c1cccc(COc2ccc3c(c2)C(=O)N(C)C3CC(=O)O)c1` (racemic) [Example 69, (R/S)-(5-(((3′-chloro-2′-methyl-1,1′-biphenyl-3-yl)methyl)oxy)-2-methyl-3-oxo-2,3-dihydro-1H-isoindol-1-yl)acetic acid] fall in the same range of EC50: 100 to 1000 nM for the first, 100 to 1000 nM for the second.

`CN1C(=O)c2cc(OCc3cccc(-c4ccc(C(F)(F)F)cc4)c3)ccc2C1CC(=O)O` (racemic) [Example 70, (R/S)-(2-methyl-3-oxo-5-(((4′-(trifluoromethyl)-1,1′-biphenyl-3-yl)methyl)oxy)-2,3-dihydro-1H-isoindol-1-yl)acetic acid] and `O=C(O)CC1CCc2cc(OCc3cccc(-c4ccc(C(F)(F)F)cc4)c3)ccc21` (stereo not drawn) [Example 15] fall in the same range of EC50: 1000 to 10000 nM for the first, 1000 to 10000 nM for the second.

First: O=C(O)CC1c2ccc(OCc3cccc(-c4ccc(C(F)(F)F)cc4)c3)cc2OCc2conc21 (racemic) [Example 71, (R/S)-(7-(((4′-(trifluoromethyl)-1,1′-biphenyl-3-yl)methyl)oxy)-4H,10H-[l]benzoxepino[4,3-c]isoxazol-10-yl)acetic acid]
Second: O=C(O)C[C@@H]1CCCc2cc(OCc3cccc(-c4ccc(C(F)(F)F)cc4)c3)ccc21 [Example 3, [(S)-6(4′-Trifluoromethyl-biphenyl-3-ylmethoxy)-1,2,3,4-tetrahydro-naphthalen-1-yl]-acetic acid]
The EC50 of the first is higher: 1000 to 10000 nM for the first, 100 to 1000 nM for the second. The second is the more potent here.

`CCOc1ccc(F)c(-c2ccc(COc3ccc4c(c3)CCC(C(=O)O)C4)cc2)c1` (racemic) [Example 72, (R/S)-6-(((5′-(ethoxy)-2′-fluoro-1,1′-biphenyl-4-yl)methyl)oxy)-1,2,3,4-tetrahydro-2-naphthalenecarboxylic acid] and `CCOc1ccc(F)c(-c2ccc(COc3ccc4c(c3)CCCC4CC(=O)O)cc2)c1` (stereo in doubt) [Example 60, (S)-[6-(5′-Ethoxy-2′-fluoro-biphenyl-4-ylmethoxy)-1,2,3,4-tetrahydro-naphthalen-1-yl]-acetic acid] fall in the same range of EC50: 1000 to 10000 nM for the first, 1000 to 10000 nM for the second.

First: Cc1ccc(-c2nc(C)c(COc3ccc4c(c3)CCC[C@H]4CC(=O)O)s2)cc1 [Example 5]
Second: Cc1ccc(-c2nc(C)c(COc3ccc4c(c3)CCCC4CC(=O)O)s2)cc1 (stereo not drawn) [Example 10]
The EC50 of the first is lower: < 100 nM for the first, 100 to 1000 nM for the second. The first is the more potent here.

First: O=C(O)C[C@H]1CCCc2cc(OCc3cccc(-c4ccc(C(F)(F)F)cc4)c3)ccc21 [Example 6]
Second: O=C(O)CC1CCCc2cc(OCc3cccc(-c4ccc(C(F)(F)F)cc4)c3)ccc21 (stereo not drawn) [Example 8]
The EC50 of the first is higher: 1000 to 10000 nM for the first, 100 to 1000 nM for the second.

First: COc1cccc(-c2ccc(COc3ccc4c(c3)CCCC4CC(=O)O)cc2)c1 (stereo not drawn) [Example 7]
Second: COc1cccc(-c2ccc(COc3ccc4c(c3)CCC4CC(=O)O)cc2)c1 (stereo not drawn) [Example 13]
The EC50 of the first is lower: < 100 nM for the first, 100 to 1000 nM for the second. The first is the more potent here.

`COc1ccc(COc2ccc3c(c2)CCCC3CC(=O)O)cc1` (stereo not drawn) [Example 9] and `CCOc1cccc(-c2ccc(COc3ccc4c(c3)C(CC(=O)O)CCC4)cc2)c1` (stereo not drawn) [Example 16] fall in the same range of EC50: 1000 to 10000 nM for the first, 1000 to 10000 nM for the second.

First: Cc1ccc(-c2nc(C)c(COc3ccc4c(c3)CCC4CC(=O)O)s2)cc1 (stereo not drawn) [Example 14]
Second: Cc1ccc(-c2nc(C)c(COc3ccc4c(c3)C(CC(=O)O)CCC4)s2)cc1 (stereo not drawn) [Example 17]
The EC50 of the first is lower: 100 to 1000 nM for the first, 1000 to 10000 nM for the second. The first is the more potent here.

`CCOc1ccccc1-c1ccc(COc2ccc3c(c2)C(CC(=O)O)CCC3)cc1` (stereo not drawn) [Example 19] and `O=C(O)CC1CCc2ccc(OCc3cccc(-c4ccc(C(F)(F)F)cc4)c3)cc2C1` (stereo not drawn) [Example 20] fall in the same range of EC50: 1000 to 10000 nM for the first, 1000 to 10000 nM for the second.

`O=C(O)C1CCc2cc(OCCOc3cccc(C(F)(F)F)c3)ccc2C1` (stereo not drawn) [Example 30] and `O=C(O)C1CCc2cc(OCc3cccc(-c4ccc(C(F)(F)F)cc4)c3)ccc2C1` (stereo not drawn) [Example 31] fall in the same range of EC50: 1000 to 10000 nM for the first, 1000 to 10000 nM for the second.

`O=C(O)C(F)(F)C1CCCc2cc(OCc3cccc(-c4ccc(C(F)(F)F)cc4)c3)ccc21` (stereo not drawn) [Example 32, Difluoro-[6-(4′-trifluoromethyl-biphenyl-3-ylmethoxy)-1,2,3,4-tetrahydro-naphthalen-1-yl]-acetic acid] and `Cc1ccc(-c2nc(C)c(COc3ccc4c(c3)CCCC4C(F)(F)C(=O)O)s2)cc1` (stereo not drawn) [Example 33] fall in the same range of EC50: 1000 to 10000 nM for the first, 1000 to 10000 nM for the second.
